Legend:
B-RAF G466V = target: T1, B-RAF G466V (Homo sapiens, UniProt P15056, G466V); assay: Target protein degradation, assay D: T-Rex 293 cells, HA-BRAF_G466V, 384 well format; assay type: cell-based; conditions: T-Rex 293 HA-BRAF_G466V cells, 24 hours, Examples 83-269; for DC50: Assay D; for Dmax: T-REx-293, Assay D
T1 construct: expressed in transfected cells; host or cells: T-Rex 293 cells (Invitrogen #R71007)
Procedure, shortened: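 Degradation measured by high-content imaging of anti-HA immunofluorescence in fixed T-Rex 293 cells carrying inducible HA-BRAF G466V (1 ng/mL doxycycline), after 24 h PROTAC exposure at 37 °C over 300 nM–5 pM (1:3, 11 points, 0.5% DMSO). Outputs DC50 and Dmax as % of control; nuclei counts against DMSO wells gauge toxicity.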

B-RAF V600E = target: T2, B-RAF V600E (Homo sapiens, UniProt P15056, V600E); assay: Target protein degradation, assay C: T-Rex 293 cells, HA-BRAF_V600E, 384 well format; assay type: cell-based; conditions: T-Rex 293 HA-BRAF_V600E cells, 24 hours, Examples 83-269; for DC50: Assay C; for Dmax: T-REx-293, Assay C
T2 construct: expressed in transfected cells; host or cells: T-Rex 293 cells (Invitrogen #R71007)
Procedure, shortened: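 After 24 h exposure to an 11-point 1:3 series (300 nM–5 pM, 0.5% DMSO), fixed T-Rex 293 cells carrying HA-BRAF V600E (induced with 1 ng/mL doxycycline) were stained anti-HA and imaged. DC50 and Dmax were derived from BRAF intensity relative to control, and cytotoxicity from nuclear counts.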

T1 sequence (P15056 whole entry G466V): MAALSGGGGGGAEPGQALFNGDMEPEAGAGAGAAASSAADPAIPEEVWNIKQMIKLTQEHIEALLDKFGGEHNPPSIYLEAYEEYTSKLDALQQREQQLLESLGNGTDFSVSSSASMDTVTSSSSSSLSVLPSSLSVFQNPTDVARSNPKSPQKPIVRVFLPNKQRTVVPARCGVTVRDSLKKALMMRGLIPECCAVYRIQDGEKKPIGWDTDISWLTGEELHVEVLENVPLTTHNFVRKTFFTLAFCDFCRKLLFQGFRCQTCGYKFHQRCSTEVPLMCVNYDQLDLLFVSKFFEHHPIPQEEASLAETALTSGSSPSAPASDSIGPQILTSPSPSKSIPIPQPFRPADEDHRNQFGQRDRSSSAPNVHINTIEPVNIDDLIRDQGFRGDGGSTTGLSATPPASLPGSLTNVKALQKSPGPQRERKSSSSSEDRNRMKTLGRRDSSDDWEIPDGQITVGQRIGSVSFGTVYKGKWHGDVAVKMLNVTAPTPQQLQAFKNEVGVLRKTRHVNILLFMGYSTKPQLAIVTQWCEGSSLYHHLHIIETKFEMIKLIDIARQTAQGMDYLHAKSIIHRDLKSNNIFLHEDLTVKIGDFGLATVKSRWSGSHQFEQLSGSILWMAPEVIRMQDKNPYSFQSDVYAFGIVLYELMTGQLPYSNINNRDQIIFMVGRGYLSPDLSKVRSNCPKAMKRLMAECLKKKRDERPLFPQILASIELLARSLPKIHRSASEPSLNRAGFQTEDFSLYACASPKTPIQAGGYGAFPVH
T2 sequence (P15056 whole entry V600E): as the sequence (P15056 whole entry G466V) above, with V466G, V600E counted along it

Compound | DC50 (B-RAF G466V) | DC50 (B-RAF V600E) | Dmax (B-RAF V600E) | Dmax (B-RAF G466V)
N#Cc1c(NS(=O)(=O)N2CC[C@@H](F)C2)ccc(F)c1Oc1ccc2ncn(-c3ccc(N4CCC(CN5CC6(C5)CN(c5cccc7c5C(=O)N(C5CCC(=O)NC5=O)C7=O)C6)CC4)nc3)c(=O)c2c1 (stereo partly drawn) [Example 173, (3R)-N-{2-cyano-3-[(3-{6-[4-({6-[2-(2,6-dioxopiperidin-3-yl)-1,3-dioxo-2,3-dihydro-1H-isoindol-4-yl]-2,6-diazaspiro[3.3]heptan-2-yl}methyl)piperidin-1-yl]pyridin-3-yl}-4-oxo-3,4-dihydroquinazolin-6-yl)oxy]-4-fluorophenyl}-3-fluoropyrrolidine-1-sulfonamide] | > 30 nM | 50 to 500 nM | 35 to 70% | 
N#Cc1c(NS(=O)(=O)N2CC[C@@H](F)C2)ccc(F)c1Oc1ccc2ncn(-c3ccc(N4CCN(C(=O)C5CN(c6ccc7c(c6)CN([C@H]6CCC(=O)NC6=O)C7=O)C5)CC4)cc3)c(=O)c2c1 [Example 243, (3R)-N-{2-cyano-3-[(3-{4-[4-(1-{2-[(3S)-2,6-dioxopiperidin-3-yl]-1-oxo-2,3-dihydro-1H-isoindol-5-yl}azetidine-3-carbonyl)piperazin-1-yl]phenyl}-4-oxo-3,4-dihydroquinazolin-6-yl)oxy]-4-fluorophenyl}-3-fluoropyrrolidine-1-sulfonamide] | 10 to 30 nM | > 500 nM |  | 35 to 70%
N#Cc1c(NS(=O)(=O)N2CC[C@@H](F)C2)ccc(F)c1Oc1ccc2ncn(C3COC4(CCN(C(=O)CC5(O)CCN(c6ccc7c(c6)CN([C@H]6CCC(=O)NC6=O)C7=O)CC5)CC4)C3)c(=O)c2c1 (stereo partly drawn) [Example 180, (3R)—N-{2-cyano-3-[(3-{8-[2-(1-{2-[(3S)-2,6-dioxopiperidin-3-yl]-1-oxo-2,3-dihydro-1H-isoindol-5-yl}-4-hydroxypiperidin-4-yl)acetyl]-1-oxa-8-azaspiro[4.5]decan-3-yl}-4-oxo-3,4-dihydroquinazolin-6-yl)oxy]-4-fluorophenyl}-3-fluoropyrrolidine-1-sulfonamide] | > 30 nM | 50 to 500 nM | 35 to 70% | 35 to 70%
N#Cc1c(NS(=O)(=O)N2CC[C@@H](F)C2)ccc(F)c1Oc1ccc2ncn(-c3ccc(N4CCC(CN5CC6(CCN(c7ccc8c(c7)CN([C@H]7CCC(=O)NC7=O)C8=O)CC6)C5)C4)cc3)c(=O)c2c1 (stereo partly drawn) [Example 233, (3R)-N-(2-cyano-3-{[3-(4-{3-[(7-{2-[(3S)-2,6-dioxopiperidin-3-yl]-1-oxo-2,3-dihydro-1H-isoindol-5-yl}-2,7-diazaspiro[3.5]nonan-2-yl)methyl]pyrrolidin-1-yl}phenyl)-4-oxo-3,4-dihydroquinazolin-6-yl]oxy}-4-fluorophenyl)-3-fluoropyrrolidine-1-sulfonamide] | 10 to 30 nM | 50 to 500 nM | 35 to 70% | 35 to 70%
N#Cc1c(NS(=O)(=O)N2CC[C@@H](F)C2)ccc(F)c1Oc1ccc2ncn(-c3ccc(N4CCC5(CC4)CC(OC4CCN(c6ccc7c(c6)CN([C@@H]6CCC(=O)NC6=O)C7=O)CC4)C5)cc3)c(=O)c2c1 [Example 252, (3R)-N-(2-cyano-3-{[3-(4-{2-[(1-{2-[(3R)-2,6-dioxopiperidin-3-yl]-1-oxo-2,3-dihydro-1H-isoindol-5-yl}piperidin-4-yl)oxy]-7-azaspiro[3.5]nonan-7-yl}phenyl)-4-oxo-3,4-dihydroquinazolin-6-yl]oxy}-4-fluorophenyl)-3-fluoropyrrolidine-1-sulfonamide] | 1 to 10 nM | 5 to 50 nM | ≤ 35% | 35 to 70%

The remaining lines, values ahead:

DC50 (B-RAF G466V) | DC50 (B-RAF V600E) | Dmax (B-RAF V600E) | Dmax (B-RAF G466V) | Compound
≤ 1 nM | 5 to 50 nM | 35 to 70% | 35 to 70% | C[C@H]1CN(CC2CCN(c3ccc4c(c3)CN([C@H]3CCC(=O)NC3=O)C4=O)CC2)CCN1c1ccc(-n2cnc3ccc(Oc4c(F)ccc(NS(=O)(=O)N5CC[C@@H](F)C5)c4C#N)cc3c2=O)cc1 [Example 84, (3R)-N-{2-cyano-3-[(3-(4-[(2S)-4-[(1-{2-[(3S)-2,6-dioxopiperidin-3-yl]-1-oxo-2,3-dihydro-1H-isoindol-5-yl}piperidin-4-yl)methyl]-2-methylpiperazin-1-yl]phenyl}-4-oxo-3,4-dihydroquinazolin-6-yl)oxy]-4-fluorophenyl}-3-fluoropyrrolidine-1-sulfonamide]
1 to 10 nM | 5 to 50 nM | 35 to 70% | ≤ 35% | N#Cc1c(NS(=O)(=O)N2CC[C@@H](F)C2)ccc(F)c1Oc1ccc2ncn(-c3cnc(C4(N5CCN(CC6CN(c7ccc(NC8CCC(=O)NC8=O)cc7F)C6)CC5)CC4)nc3)c(=O)c2c1 (stereo partly drawn) [Example 108, (3R)-N-[2-cyano-3-({3-[2-(1-{4-[(1-{4-[(2,6-dioxopiperidin-3-yl)amino]-2-fluorophenyl}azetidin-3-yl)methyl]piperazin-1-yl}cyclopropyl)pyrimidin-5-yl]-4-oxo-3,4-dihydroquinazolin-6-yl}oxy)-4-fluorophenyl]-3-fluoropyrrolidine-1-sulfonamide]
10 to 30 nM | 50 to 500 nM | 35 to 70% | ≥ 70% | CC(C)(C1CCN(c2ccc(-n3cnc4ccc(Oc5c(F)ccc(NS(=O)(=O)N6CC[C@@H](F)C6)c5C#N)cc4c3=O)cc2)CC1)N1CCN(c2ccc3c(c2)CN([C@H]2CCC(=O)NC2=O)C3=O)CC1 [Example 269, (3R)-N-(2-cyano-3-{[3-(4-{4-[2-(4-{2-[(3S)-2,6-dioxopiperidin-3-yl]-1-oxo-2,3-dihydro-1H-isoindol-5-yl}piperazin-1-yl)propan-2-yl]piperidin-1-yl}phenyl)-4-oxo-3,4-dihydroquinazolin-6-yl]oxy}-4-fluorophenyl)-3-fluoropyrrolidine-1-sulfonamide]
> 30 nM | ≤ 5 nM | ≤ 35% | ≤ 35% | N#Cc1c(NS(=O)(=O)N2CC[C@@H](F)C2)ccc(F)c1Oc1ccc2ncn(-c3ccc(N4CCC5(CC4)CN(c4cccc6c4CN(C4CCC(=O)NC4=O)C6=O)C5)nc3)c(=O)c2c1 (stereo partly drawn) [Example 165, (3R)-N-(2-cyano-3-{[3-(6-{2-[2-(2,6-dioxopiperidin-3-yl)-1-oxo-2,3-dihydro-1H-isoindol-4-yl]-2,7-diazaspiro[3.5]nonan-7-yl}pyridin-3-yl)-4-oxo-3,4-dihydroquinazolin-6-yl]oxy}-4-fluorophenyl)-3-fluoropyrrolidine-1-sulfonamide]
1 to 10 nM | 50 to 500 nM | 35 to 70% | 35 to 70% | N#Cc1c(NS(=O)(=O)N2CC[C@@H](F)C2)ccc(F)c1Oc1ccc2ncn(-c3ccc(N4CCC5(CC4)CN(CC4CCN(c6ccc7c(c6)CN([C@H]6CCC(=O)NC6=O)C7=O)CC4)C5)cc3)c(=O)c2c1 [Example 202, (3R)-N-(2-cyano-3-{[3-(4-{2-[(1-{2-[(3S)-2,6-dioxopiperidin-3-yl]-1-oxo-2,3-dihydro-1H-isoindol-5-yl}piperidin-4-yl)methyl]-2,7-diazaspiro[3.5]nonan-7-yl}phenyl)-4-oxo-3,4-dihydroquinazolin-6-yl]oxy}-4-fluorophenyl)-3-fluoropyrrolidine-1-sulfonamide]

Reference: patent publication US11957759B1, “Rapidly accelerated fibrosarcoma (RAF) degrading compounds and associated methods of use” (Arvinas Operations, Inc., priority 2022, dated 2024)
